Data from patent publication US7932390B2, “Substituted thieno[3,2-C]pyridine carboxylic acid derivatives” (Hoffman-La Roche Inc., priority 2006, dated 2011).
Where a name gives a salt, the structure may show the parent alone.

Columns and labels:
Type in all cases: biochemical
b-Raf Wild-Type = target: T1, b-Raf Wild-Type (Homo sapiens, UniProt P15056); test: b-Raf wild-type HTRF assay with 6H-MEK as substrate (dose response); conditions: recombinant human b-Raf wild-type residues 416-end, GST-tag
T1 construct: recombinant human b-Raf residues 416-end; purchased Upstate 14-530M; host or cells: baculovirus, Sf21 insect cells
Procedure: (§1) Kinase Enzyme Inhibition Assay (IC50)
b-Raf Wild-Type HTRF Assay with 6H-MEK as Substrate (Dose Response)
The assay utilizes 6H-MEK as the substrate. Upon b-Raf WT phosphorylation, phosphorylated 6H-MEK is detected with rabbit anti-phospho-MEK1/2, Eu-labeled anti-rabbit, and APC-labeled anti-6H antibodies.
(§2) Reagents and Instruments:
Enzyme: recombinant human b-Raf residues 416-end with N-terminal GST-tag from Upstate; (expressed by baculovirus in Sf21 insect cells), 0.26 mg/mL (3.87 μM assuming a molecular weight of 67.2 kD) Cat. #14-530M, Lot #25502AU, stored at −80° C.
Substrate: WT full-length 6H-MEK from C. Belunis (5126104), 4.94 mg/mL (154.4 μM assuming a MW of 32 kD) stored at −15° C.
Antibodies: Rabbit (α-P-(Ser 217/221)-MEK-1/2 Ab (from Cell Signaling, Cat. #9121B, Lot 14); Eu-(α-rabbit IgG (from Wallac, Cat. #AD0083, Lot 318663, 710 ug/mL, 4.4 μM); (α-6H-SureLight-APC (from Martek, Cat. #AD0059H, Lot E012AB01, 3.03 μM).
(§3) Reader: Envision from PerkinElmer, HTRF reading mode with 412 mirror
(§4) Assay Plate Matrix all-black polypropylene plates (Cat. #4344)
(§5) Others: Weidman 384 polypropylene plates (REMP) for compound plate.
(§6) (1) Prepare Kinase Assay Buffer (KAB): 50 mM HEPES (HyClone) pH7, 10 mM MgCl2, 1 mM DTT, 0.1 mM […], and 0.3 mg/ml BSA.
(§7) (2) Prepare 6H-MEK (150 nM) in KAB. Add 12 μl/well to the assay plate.
(§8) (3) Prepare ATP (66 μM) in KAB.
(§9) (4) Dilute compounds to 2.4 mM and any positive controls to 480 μM in DMSO. Perform 10-point 3× dilution in DMSO. Withdraw 2.5 μl/well of DMSO solution and add to 27.5 μl/well ATP solution in (3).
(§10) (5) Mix, then add 6 μl/well of solution in (4) to the assay plate for a DMSO concentration of 2.1% during MEK phosphorylation.
(6) Prepare b-Raf WT ([…]) in KAB.
(7) Add 6 μl/well of KAB in columns 1-2 and 6 μl/well of b-Raf WT in columns 3-24.
(§11) (8) Incubate at 37° C. for 30 min.
(9) Prepare rabbit (α-P-(Ser 217/221)-MEK-1/2 Ab (1:200 from stock) in AB1: 50 mM HEPES pH7, 0.2 mg/ml BSA, and 43 mM EDTA.
(§12) (10) To stop reaction, add 6 μl/well of solution from (9) to the assay plate and incubate at 37° C. for 30 min.
(11) Prepare Eu-(α-rabbit IgG (9 nM) and (α-6H-SureLight-APC (180 nM) in AB2: 50 mM HEPES pH7 and 0.2 mg/ml BSA.
(§13) (12) Add 6 μl/well of solution from (11) to the assay plate.
(§14) (13) For determining the spectrum cross talk factor, prepare 2 samples following steps (1) to (10). For the blank sample, add 6 μl/well of AB2. For the cross talk factor sample, add 6 μl/well of Eu-anti rabbit IgG (9 nM).
(§15) (14) Incubate at room temperature for 1.5 hours.
(§16) (15) Read HTRF signals at 615 nm and 665 nm on the Envision. Normalize HTRF signals after spectrum cross-talk correction.

b-Raf V600E Mutant = target: T2, b-Raf V600E Mutant (Homo sapiens, UniProt P15056, V600E); test: b-Raf V600E mutant HTRF assay with 6H-MEK as substrate (dose response); conditions: recombinant human b-Raf residues 416-end with V600E mutation, GST-tag
T2 construct: recombinant human b-Raf residues 416-end containing a V600E mutation; purchased Upstate 14-5M; host or cells: baculovirus, Sf21 insect cells
From the text: as §1
b-Raf V600E Mutant HTRF Assay with 6H-MEK as Substrate (Dose Response)
The assay utilizes 6H-MEK as the substrate. Upon b-Raf V600E phosphorylation, phosphorylated 6H-MEK is detected with rabbit anti-phospho-MEK1/2, Eu-labeled anti-rabbit, and APC-labeled anti-6H antibodies.
as §2
Enzyme: recombinant human b-Raf residues 416-end containing a V600E mutation with N-terminal GST-tag from Upstate; (expressed by baculovirus in Sf21 insect cells), 0.26 mg/mL ([…] assuming a molecular weight of 67.3 kD) Cat. #14-5M, Lot #25633AU, stored at −80° C.
Substrate: WT full-length 6H-MEK from C. Belunis (May 26, 2004), 4.94 mg/mL (154.4 μM assuming a MW of 32 kD) stored at −15° C.
(§17) Antibodies: Rabbit (α-P-(Ser 217/221)-MEK-1/2 Ab (from Cell Signaling, Cat. #9121B, Lot 14); Eu-(α-rabbit IgG (from Wallac, Cat. # AD0083, Lot 318663, 710 ug/mL, 4.4 μM); (α-6H-SureLight-APC (from Martek, Cat. #AD0059H, Lot E012AB01, 3.03 μM).
as §3, §4, §5, §6, §7, §8
(4) Dilute compounds to 2.4 mM and positive controls to 480 μM in DMSO. Perform 10-point 3× dilution in DMSO. Withdraw 2.5 μl/well of DMSO solution and add to 27.5 μl/well ATP solution in (3).
as §10
(6) Prepare b-Raf V600E ([…]) in KAB.
(7) Add 6 μl/well of KAB in columns 1-2 and 6 μl/well of b-Raf V600E in columns 3-24.
as §11
(9) Prepare rabbit α-P-(Ser 217/221)-MEK-1/2 Ab (1:200 from stock) in AB1: 50 mM HEPES pH7, 0.2 mg/ml BSA, and 43 mM EDTA.
as §12
(11) Prepare Eu-α-rabbit IgG (9 nM) and α-6H-SureLight-APC (180 nM) in AB2: 50 mM HEPES pH7 and 0.2 mg/ml BSA.
as §13, §14, §15, §16

c-Raf = target: T3, c-Raf (Homo sapiens, UniProt P04049); test: c-Raf HTRF assay with 6H-MEK as substrate (dose response); conditions: cloned human c-Raf with EE-tag
T3 construct: made in house; host or cells: baculovirus, High-5 (Hi5) insect cells, co-infected with FLAG-vSrc virus
Procedure: as §1
c-Raf HTRF Assay with 6H-MEK as Substrate (Dose Response)
The assay utilizes 6H-MEK as the substrate. Upon c-Raf phosphorylation, phosphorylated 6H-MEK is detected with rabbit anti-phospho-MEK1/2, Eu-labeled anti-rabbit, and APC-labeled anti-6H antibodies.
as §2
Enzyme: cloned human c-Raf with EE-tag; phosphorylated (co-expressed with v-src-FLAG in baculovirus Hi5 cells), 0.2 mg/mL (2.74 μM assuming a molecular weight of 73 kD) stored at −15° C.
Substrate: WT full-length 6H-MEK, 4.94 mg/mL (154.4 μM assuming a MW of 32 kD) stored at −15° C.
as §17, §3, §4, §5, §6, §7, §8, §9, §10
(6) Prepare c-Raf (12 nM) in KAB.
(7) Add 6 μl/well of KAB in columns 1-2 and 6 μl/well of c-Raf in columns 3-24.
as §11
(9) Prepare rabbit (α-P-(Ser 217/221)-MEK-1/2 Ab (1:240 from stock) in AB1: 50 mM HEPES pH7, 0.2 mg/ml BSA, and 43 mM EDTA.
as §12
(11) Prepare Eu-(α-rabbit IgG (9 nM) and (α-6H-SureLight-APC (120 nM) in AB2: 50 mM HEPES pH7 and 0.2 mg/ml BSA.
as §13, §14, §15, §16
Expression and Purification of c-Raf
N terminal EE-tagged c-Raf was expressed in High-5 cells. A five liter culture was co-transfected with virus for EE-c-Raf and FLAG-vSrc at a ratio of 1:2 and harvested after 48 hours. The cell pellet was lysed in TBS containing 5 mM EDTA, 50 mM KF, 20 mM Na pyrophosphate, 20 mM β-glycerolphsphate, 0.5 mM Na VO3, 1% NP-40 (w/v) and Complete Protease Tablets. The lysate was centrifuged at 20,000×g for 1 hour. The supernatant was incubated with 8 ml of anti-EE tag-Protein G Sepharose for 2 hours at 4° C. The resin was then washed with 30 volumes of the above buffer. The c-Raf protein was eluted by incubation with the above buffer containing 100 mg/ml of EE peptide for 1 hour at 4° C. Protein was concentrated using an Amicon Stir Cell with an YM10 membrane. The concentrated protein was dialyzed against TBS containing 1 mM DTT and 30% Glycerol. Protein concentration was determined by the BioRad DC method.
E. coli cells containing the plasmid for the expression of 6H-MEK1 (62-393) were grown in Rich Media and induced with 1 mM IPTG for 24 hours at 22° C. The cell pellet was resuspent in 50 mM potassium phosphate buffer, pH 8.0, 300 mM NaCl, 5 mM MgCl2, 10 mM CHAPS, 2 mM TCEP, and Complete Protease Inhibitor Tablets. Cells were disrupted by sonication. The lysate was cleared by centrifugation at 13,000×g for 45 minutes. […]

T3 sequence (P04049 whole entry): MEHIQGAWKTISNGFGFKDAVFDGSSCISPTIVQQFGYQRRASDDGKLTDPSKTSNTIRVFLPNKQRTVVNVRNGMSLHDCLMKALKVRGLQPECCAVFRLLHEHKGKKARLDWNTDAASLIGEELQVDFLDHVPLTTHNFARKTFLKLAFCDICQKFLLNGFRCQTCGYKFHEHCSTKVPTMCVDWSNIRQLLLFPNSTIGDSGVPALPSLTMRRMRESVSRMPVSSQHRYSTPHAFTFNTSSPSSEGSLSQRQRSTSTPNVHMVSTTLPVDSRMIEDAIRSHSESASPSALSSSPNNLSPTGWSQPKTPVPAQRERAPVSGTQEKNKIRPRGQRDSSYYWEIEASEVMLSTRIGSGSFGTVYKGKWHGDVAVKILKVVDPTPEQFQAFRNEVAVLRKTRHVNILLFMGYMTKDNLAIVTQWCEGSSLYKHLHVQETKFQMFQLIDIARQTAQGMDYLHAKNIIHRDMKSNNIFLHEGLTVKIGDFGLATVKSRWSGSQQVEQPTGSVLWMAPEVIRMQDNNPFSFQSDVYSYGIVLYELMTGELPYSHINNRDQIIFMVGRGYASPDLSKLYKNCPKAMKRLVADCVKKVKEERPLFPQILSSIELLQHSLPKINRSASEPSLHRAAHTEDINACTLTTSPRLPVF
T2 sequence (P15056 416-766 V600E): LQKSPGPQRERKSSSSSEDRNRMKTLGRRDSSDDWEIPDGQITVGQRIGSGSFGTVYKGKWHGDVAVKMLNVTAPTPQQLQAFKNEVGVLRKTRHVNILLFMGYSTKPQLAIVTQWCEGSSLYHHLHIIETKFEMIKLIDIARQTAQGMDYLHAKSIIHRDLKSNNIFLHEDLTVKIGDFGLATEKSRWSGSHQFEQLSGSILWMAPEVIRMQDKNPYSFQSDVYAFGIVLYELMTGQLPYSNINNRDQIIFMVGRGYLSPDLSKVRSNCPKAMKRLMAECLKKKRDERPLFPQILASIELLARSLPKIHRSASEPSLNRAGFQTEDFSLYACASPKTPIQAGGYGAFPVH
T1 sequence (P15056 416-766 limits assumed): as the sequence (P15056 416-766 V600E) above, with E185V counted along it

SMILES | IC50 (b-Raf Wild-Type) [nM] | IC50 (b-Raf V600E Mutant) [nM] | IC50 (c-Raf) [nM]
CCOC(=O)c1cnc(N)c2c(COc3cccc(-c4nnc(C)o4)c3)csc12 [Example 9, 4-Amino-3-[3-(5-methyl-[1,3,4]oxadiazol-2-yl)-phenoxymethyl]-thieno[3,2-c]pyridine-7-carboxylic acid ethyl ester] | 12700 | 997 | 5420
Cc1nnc(-c2cccc(OCc3csc4c(C(=O)NCCO)cnc(N)c34)c2)o1 [Example 10, 4-Amino-3-[3-(5-methyl-[1,3,4]oxadiazol-2-yl)-phenoxymethyl]-thieno[3,2-c]pyridine-7-carboxylic acid (2-hydroxy-ethyl)-amide] | 1300 | 327 | 768
Cc1nnc(-c2ccc(C)c(OCc3csc4c(C(=O)NCCO)cnc(N)c34)c2)o1 [Example 14, 4-Amino-3-[2-methyl-5-(5-methyl-[1,3,4]oxadiazol-2-yl)-phenoxymethyl]-thieno[3,2-c]pyridine-7-carboxylic acid (2-hydroxy-ethyl)-amide trifluoro-acetic acid salt] | 117 | 17 | 41
Cc1ccc(-c2cn(C)nn2)cc1OCc1csc2c(C(=O)NCCO)cnc(N)c12 [Example 24, 4-Amino-3-[2-methyl-5-(1-methyl-1H-[1,2,3]triazol-4-yl)-phenoxymethyl]-thieno[3,2-c]pyridine-7-carboxylic acid (2-hydroxy-ethyl)-amide] | 45 | > 50000 | 11.9
COc1ccc(Cn2nnc(-c3cccc(OCc4csc5c(C(=O)NCCO)cnc(N)c45)c3)n2)cc1 [Example 29, 4-Amino-3-{3-[2-(4-methoxy-benzyl)-2H-tetrazol-5-yl]-phenoxymethyl}-thieno[3,2-c]pyridine-7-carboxylic acid (2-hydroxy-ethyl)-amide] | 544 | 94 | 231
Cn1nnc(-c2cccc(OCc3csc4c(C(=O)NCCO)cnc(N)c34)c2)n1 [Example 33, 4-Amino-3-[3-(2-methyl-2H-tetrazol-5-yl)-phenoxymethyl]-thieno[3,2-c]pyridine-7-carboxylic acid (2-hydroxy-ethyl)-amide] | 1680 | 258 | 341
Cc1ccc(-c2nnc(-c3ccc(Cl)cc3)o2)cc1OCc1csc2c(C(=O)NCCO)cnc(N)c12 [Example 49, 4-Amino-3-{5-[5-(4-chloro-phenyl)-[1,3,4]oxadiazol-2-yl]-2-methyl-phenoxy-methyl}-thieno[3,2-c]pyridine-7-carboxylic acid (2-hydroxy-ethyl)-amide trifluoroacetic acid salt] | 5140 | 920 | 17
